# Experimental data reported in patent publication US20090156632A1, “DOSAGE REGIMEN FOR PRASUGREL” (priority 2005, published 2009).
# Tests used:
# [1] = tested on: ADP (5 μM and 20 μM)-induced platelet aggregation; assay: Clinical Example 3: responders by ADP-induced platelet aggregation (turbidometric aggregometry) after loading dose; assay type: in vivo, human; conditions: for responders: healthy volunteers
# Description: Clopidogrel Responders and Nonresponders: A Comparison with Prasugrel a Novel Thienopyridine P2Y12 Receptor Antagonist • Background: Lower levels of inhibition of platelet aggregation (IPA) with clopidogrel have been associated with a higher risk of adverse events after percutaneous coronary intervention (PCI). Thresholds of IPA, objectively defined with Bayesian classification theory, were used to identify responders and non-responders to clopidogrel and prasugrel, a novel thienopyridine P2Y12 receptor antagonist. • Methods: An integrated database of ADP (5 μM and 20 μM)-induced platelet aggregation as measured by turbidometric aggregometry was analyzed from three single-center cross-over clinical pharmacology studies. Subjects (N=112, aged 18-65 years) were healthy volunteers with a baseline maximum platelet aggregation (MPA) of >70% to 20 μM ADP and were randomized to either a clopidogrel 300 mg loading dose (LD) or a prasugrel 60 mg LD. The change in MPA (ΔMPA) from baseline and IPA were evaluated at both 4-5 and 24 hours after the LD. A responder was defined as an individual achieving either a ΔMPA≧15% or an IPA≧20% in response to 20 μM ADP.
# [2] = tested on: platelet aggregation induced by 20 μM ADP; assay: Clinical Example 1: multiple-dose study, platelet aggregation induced by 20 μM ADP measured turbidometrically; assay type: in vivo, human; conditions: for IPA: 24 hours after 10th dose, mean ± SE, n = 6
# Experimental: (§1) A Comparative Study of the Effects of Prasugrel and Clopidogrel on Platelet Function in Healthy Subjects • Background: Antiplatelet agents such as aspirin and clopidogrel are effective in the secondary prevention of atherothrombotic events. […] This study examined the tolerability, safety, and IPA profile of prasugrel compared with clopidogrel. • Method: A double-blind, placebo-controlled, multiple-dose study of healthy male volunteers randomized into 5 groups (n=6): prasugrel (5, 10 and 20 mg), clopidogrel (75 mg), and placebo. Study medications were taken once daily for 10 days.
# [3] = Clinical Example 1: tolerability, safety and bleeding time; assay type: in vivo, human; conditions: healthy subjects; multiple oral dosing, 5 to 20 mg for 10 days
# Experimental: as §1
# platelet aggregation = assay: Preclinical studies of prasugrel base versus clopidogrel; conditions: preclinical studies involving the base of prasugrel
# [4] = tested on: platelet aggregation to 20 μM ADP; assay: Clinical Example 2: IPA to 20 μM ADP by turbidometric aggregometry and non-responder rates in aspirin-treated patients; assay type: in vivo, human; conditions: for pre-dose IPA at day 28 / IPA at 4 h after LD: 20 μM ADP
# Experimental: This study analyzed IPA and non-responder rates with prasugrel (Pras), a novel P2Y12 antagonist, vs. clopidogrel (Clop) in aspirin-treated patients. • Methods: After 7-days on aspirin 325 mg, 101 subjects were randomized to 1 of 5 dosing regimens, a loading dose (LD) on day 1 and a daily maintenance dose (MD) on days 2-28: prasugrel—40 mg LD/5 mg MD, 40 mg LD/7.5 mg MD, 60 mg LD/10 mg MD, or 60 mg LD/15 mg MD or clopidogrel—300 mg LD/75 mg MD). IPA to 20 μM ADP was measured by turbidometric aggregometry.
# [5] = 5 μM ADP, prasugrel 60 mg LD, N = 91
# [6] = 20 μM ADP, prasugrel 60 mg LD, N = 91
# [7] = 5 μM ADP, clopidogrel 300 mg LD, N = 112
# [8] = 20 μM ADP, clopidogrel 300 mg LD, N = 112
structure (smiles),measurement,setting,value
"CC(=O)Oc1cc2c(s1)CCN(C(C(=O)C1CC1)c1ccccc1F)C2 (stereo not drawn) [prasugrel, 2-Acetoxy-5-(α-cyclopropylcarbonyl-2-fluorobenzyl)-4,5,6,7-tetrahydrothieno[3,2-c]pyridine]","Number of Responders, IPA ≧ 25%",[1]; [5],91
same,"Number of Responders, ΔMPA ≧ 20%",[1]; [5],91
same,"Percentage of Responders, IPA ≧ 25%",[1]; [5],100%
same,"Percentage of Responders, ΔMPA ≧ 20%",[1]; [5],100%
same,responders,"[1]; 5 μM ADP, prasugrel 60 mg LD",100%
same,"Number of Responders, IPA ≧ 20%",[1]; [6],91
same,"Number of Responders, ΔMPA ≧ 15%",[1]; [6],91
same,"Percentage of Responders, IPA ≧ 20%",[1]; [6],100%
same,"Percentage of Responders, ΔMPA ≧ 15%",[1]; [6],100%
same,responders,"[1]; 20 μM ADP, prasugrel 60 mg LD",100%
same,IPA,"[2]; prasugrel 5 mg once daily for 10 days, 20 μM ADP",39.2 ± 4.4%
same,IPA,"[2]; prasugrel 10 mg once daily for 10 days, 20 μM ADP",58.2 ± 4.9%
same,IPA,"[2]; prasugrel 20 mg once daily for 10 days, 20 μM ADP",68.3 ± 5.4%
same,"IPA, range over doses","[2]; prasugrel 5, 10 and 20 mg once daily for 10 days, 24 hours after the final dose, 20 μM ADP",39.2%-68.3
same,tolerability,[3],well tolerated
same,potency relative to clopidogrel,platelet aggregation,at least 10 times
same,pre-dose IPA at day 28,"[4]; prasugrel 10 mg MD, aspirin-treated patients",57.5%
same,pre-dose IPA at day 28,"[4]; prasugrel 15 mg MD, aspirin-treated patients",65.8%
same,IPA at 4 h after LD,"[4]; prasugrel 40 mg LD, aspirin-treated patients",60.6%
same,IPA at 4 h after LD,"[4]; prasugrel 60 mg LD, aspirin-treated patients",68.4%
same,rate of non-responders compared to standard clopidogrel LD and MD,"[4]; prasugrel LD of 40 or 60 mg and MD of 10 or 15 mg, aspirin-treated patients",lower rate of non-responders
"COC(=O)[C@H](c1ccccc1Cl)N1CCc2sccc2C1 [clopidogrel, reference compound]","Number of Responders, IPA ≧ 25%",[1]; [7],87
same,"Number of Responders, ΔMPA ≧ 20%",[1]; [7],82
same,"Percentage of Responders, IPA ≧ 25%",[1]; [7],78%
same,"Percentage of Responders, ΔMPA ≧ 20%",[1]; [7],73%
same,responders,"[1]; 5 μM ADP, clopidogrel 300 mg LD",approximately 75%
same,"Number of Responders, IPA ≧ 20%",[1]; [8],64
same,"Number of Responders, ΔMPA ≧ 15%",[1]; [8],68
same,"Percentage of Responders, IPA ≧ 20%",[1]; [8],57%
same,"Percentage of Responders, ΔMPA ≧ 15%",[1]; [8],61%
same,responders,"[1]; 20 μM ADP, clopidogrel 300 mg LD",60%
same,subjects demonstrating minimal IPA at Day 10,[2]; clopidogrel 75 mg once daily for 10 days,2 of 6
same,IPA,"[2]; clopidogrel 75 mg once daily for 10 days, 20 μM ADP",15.7%
same,IPA,"[2]; clopidogrel 75 mg once daily for 10 days, 20 μM ADP, listed as Clopidogrel",15.7 ± 6.8%
same,pre-dose IPA at day 28,"[4]; clopidogrel 75 mg MD, aspirin-treated patients",31.2%
same,non-responder rate (not achieving ≧20% IPA),"[4]; clopidogrel 75 mg MD, pre-dose during MD",46%
same,non-responder rate (not achieving ≧20% IPA),"[4]; clopidogrel 300 mg LD, 4 h after LD",52%
same,IPA at 4 h after LD,"[4]; clopidogrel 300 mg LD, aspirin-treated patients",30.0%
